This passage reports IC50 results from ChEMBL document CHEMBL1126515 (Bioorg Med Chem Lett, 1993).

Assay [1] has as its target T1, Cholecystokinin receptor type A (Rattus norvegicus, UniProt P30551).
T1 sequence (P30551 whole entry): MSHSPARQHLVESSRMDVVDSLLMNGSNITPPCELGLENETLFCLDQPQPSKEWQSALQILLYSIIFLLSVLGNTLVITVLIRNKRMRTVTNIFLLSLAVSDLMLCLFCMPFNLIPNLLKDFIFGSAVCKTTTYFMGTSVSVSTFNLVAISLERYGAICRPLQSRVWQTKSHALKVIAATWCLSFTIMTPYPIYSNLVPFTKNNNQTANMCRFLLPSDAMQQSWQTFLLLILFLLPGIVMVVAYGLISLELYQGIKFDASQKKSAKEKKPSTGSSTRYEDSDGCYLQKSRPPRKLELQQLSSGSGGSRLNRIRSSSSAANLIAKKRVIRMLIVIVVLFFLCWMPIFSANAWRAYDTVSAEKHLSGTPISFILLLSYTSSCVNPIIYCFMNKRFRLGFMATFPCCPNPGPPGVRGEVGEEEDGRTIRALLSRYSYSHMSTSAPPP
Description: Compound measured for half-maximal inhibition of specific binding of [125I]-Bolton Hunter CCK-26-33 to CCK-A receptor in the rat pancreas.

Assay [2] has as its target T2, Gastrin/cholecystokinin type B receptor (Mus musculus, UniProt P56481).
T2 sequence (P56481 whole entry): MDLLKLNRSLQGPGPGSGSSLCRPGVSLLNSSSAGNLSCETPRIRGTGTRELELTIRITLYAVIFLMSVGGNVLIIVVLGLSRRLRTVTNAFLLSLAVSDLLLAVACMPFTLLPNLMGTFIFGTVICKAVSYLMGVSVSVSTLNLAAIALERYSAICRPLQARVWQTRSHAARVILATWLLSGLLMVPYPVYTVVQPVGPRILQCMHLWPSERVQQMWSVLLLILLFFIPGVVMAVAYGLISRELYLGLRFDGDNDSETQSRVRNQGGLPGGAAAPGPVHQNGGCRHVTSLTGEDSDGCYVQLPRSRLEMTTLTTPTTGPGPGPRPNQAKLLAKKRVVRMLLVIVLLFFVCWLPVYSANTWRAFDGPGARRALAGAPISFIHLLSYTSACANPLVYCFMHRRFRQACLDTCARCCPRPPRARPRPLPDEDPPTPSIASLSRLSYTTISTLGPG
Briefly: Compound measured for half-maximal inhibition of specific binding of [125I]bolton Hunter CCK-26-33 to CCK-B receptor in the mouse cerebral cortex. It is filed as tissue-based.

As a reminder, the IC50 is the concentration at which inhibition is half-maximal. The low end stands for higher potency, the high end for lower potency.

Take `O=C(O)C[C@@H](Cc1ccccc1)NC(=O)/C(=C/c1c[nH]c2ccccc12)NC(=O)OC1C2CC3CC(C2)CC1C3` (some centres undefined): the figures for the concentration for half-maximal inhibition (IC50) in assay [1] and in assay [2] were 3.7 nM and 99 nM, respectively.

`C[C@](Cc1c[nH]c2ccccc12)(NC(=O)OC1C2CC3CC(C2)CC1C3)C(=O)N[C@H](CC(=O)O)Cc1ccccc1` (some centres undefined) gave an IC50 in assay [1] of 30 nM. Consider `O=C(O)C[C@@H](Cc1ccccc1)NC(=O)C(=Cc1c[nH]c2ccccc12)NC(=O)OC1C2CC3CC(C2)CC1C3` (some centres undefined), for which the IC50 in assay [1] stood at 3.9 nM; in assay [2], 60 nM.

`O=C(O)C[C@H](Cc1ccccc1)NC(=O)C(=Cc1c[nH]c2ccccc12)NC(=O)OC1C2CC3CC(C2)CC1C3` (some centres undefined): the IC50 came to 18 nM in assay [1] and 0.3 nM in assay [2]. For `O=C(O)C[C@H](Cc1ccccc1)NC(=O)/C(=C/c1c[nH]c2ccccc12)NC(=O)OC1C2CC3CC(C2)CC1C3` (some centres undefined), in that order: 550 nM and 13 nM.
